IC50 data for one compound are collected here from BindingDB's records for doi:10.1021/jm0003440 (Merck Frosst Centre For Therapeutic Research, 2001).

By IC50 is commonly meant the point on the concentration scale where inhibition reaches its midpoint.

The assay can be described thus: Inhibitory activity tested against Human Cathepsin K receptor using bone resorption assay.

`N#CN1CCC(NC(=O)OCc2ccccc2)C1` (stereo unspecified) [(1-Cyano-pyrrolidin-3-yl)-carbamic acid benzyl ester] returned a concentration for half-maximal inhibition (IC50) of 1410 nM.
